Measurements taken from patent US20120121591A1 (priority 2009, published 2012).
Read-outs that look alike come from different tables or passages of the source.

How the values were obtained:
Type in all cases: cell-based
[1] = molecular target: hKv1.3 (Homo sapiens, UniProt P22001); assay: cell-based
[2] = tested on: IL-2 secretion from T cells in human whole blood; settings: read-out: WB (IL-2) IC50 (nM, Avg)
[3] = tested on: IFN-g secretion from T cells in human whole blood; settings: read-out: WB (IFNg) IC50 (nM, Avg)

Sequence of hKv1.3 (P22001 whole entry): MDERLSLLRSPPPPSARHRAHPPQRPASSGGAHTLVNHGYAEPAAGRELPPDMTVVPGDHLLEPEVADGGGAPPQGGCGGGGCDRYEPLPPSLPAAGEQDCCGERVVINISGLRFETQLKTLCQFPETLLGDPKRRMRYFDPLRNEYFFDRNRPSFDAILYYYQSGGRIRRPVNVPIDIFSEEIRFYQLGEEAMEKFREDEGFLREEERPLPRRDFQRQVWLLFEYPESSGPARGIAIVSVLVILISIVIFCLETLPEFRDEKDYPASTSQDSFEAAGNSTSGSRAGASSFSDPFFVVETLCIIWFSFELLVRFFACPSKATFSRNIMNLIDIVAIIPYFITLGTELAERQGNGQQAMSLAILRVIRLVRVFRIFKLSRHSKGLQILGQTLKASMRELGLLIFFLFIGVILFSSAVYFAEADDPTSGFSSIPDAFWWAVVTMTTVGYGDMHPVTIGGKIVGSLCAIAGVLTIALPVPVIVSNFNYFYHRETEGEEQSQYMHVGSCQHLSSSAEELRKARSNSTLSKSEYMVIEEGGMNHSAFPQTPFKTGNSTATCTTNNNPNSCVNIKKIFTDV

| Molecule | IC50 ([1]; Kv1.3 (IWQ) IC50 (nM, Avg)) [nM] | IC50 [2] [nM] | IC50 [3] [nM] | IC50 ([1]; read-out: Kv1.3 (IWQ) IC50 (nM, Avg)) [nM] |
| --- | --- | --- | --- | --- |
| CCCC[C@@H]1NC(=O)[C@H](CO)NC(=O)[C@H](Cc2c[nH]cn2)NC(=O)[C@H](CCC(=O)O)NC(=O)[C@@H]2CSSC[C@@H]3NC(=O)[C@H]([C@@H](C)O)NC(=O)[C@H](CCCNC(=N)N)NC(=O)[C@H](CCCNC(=N)N)NC(=O)[C@H](CSSC[C@H](NC(=O)[C@H](CCCNC(=N)N)NC(=O)[C@H](CO)NC(=O)[C@H](CCCCN)NC(=O)[C@@H]4CCCN4C(=O)[C@H]([C@@H](C)CC)NC(=O)[C@H]([C@@H](C)O)NC(=O)[C@H](CC(=O)O)NC(=O)[C@H]([C@@H](C)CC)NC(=O)[C@@H](NC(=O)[C@H](CO)NC(=O)[C@@H](N)CCCNC(=N)N)CSSC[C@@H](C(N)=O)NC(=O)[C@H]([C@@H](C)O)NC(=O)CNC3=O)C(=O)N[C@@H]([C@@H](C)O)C(=O)N[C@@H](C)C(=O)N[C@@H](C)C(=O)N[C@@H](CCCCN)C(=O)N2)NC(=O)[C@H](Cc2ccccc2)NC(=O)[C@H](CO)NC(=O)[C@H](CC(C)C)NC(=O)[C@H](CCCNC(=N)N)NC(=O)[C@H](Cc2ccc(O)cc2)NC(=O)[C@H](CCCCN)NC1=O | 0.398 | 1.32 | 2.03 |  |
| CCCC[C@@H]1NC(=O)[C@H](CO)NC(=O)[C@H](Cc2c[nH]cn2)NC(=O)[C@H](CCCCN)NC(=O)[C@@H]2CSSC[C@@H]3NC(=O)[C@H]([C@@H](C)O)NC(=O)[C@H](CCCNC(=N)N)NC(=O)[C@H](CCCCN)NC(=O)[C@H](CSSC[C@H](NC(=O)[C@H](CCCNC(=N)N)NC(=O)[C@H](CO)NC(=O)[C@H](CCCCN)NC(=O)[C@@H]4CCCN4C(=O)[C@H]([C@@H](C)CC)NC(=O)[C@H]([C@@H](C)O)NC(=O)[C@H](CC(=O)O)NC(=O)[C@H](CCC(=O)O)NC(=O)[C@@H](NC(=O)[C@H](CO)NC(=O)[C@@H](N)CCCNC(=N)N)CSSC[C@@H](C(N)=O)NC(=O)[C@H]([C@@H](C)O)NC(=O)CNC3=O)C(=O)N[C@@H]([C@@H](C)O)C(=O)N[C@@H](C)C(=O)N[C@@H](Cc3ccccc3)C(=O)N[C@@H](CCCCN)C(=O)N2)NC(=O)[C@H](Cc2ccccc2)NC(=O)[C@H](Cc2cccc3ccccc23)NC(=O)[C@H](CC(C)C)NC(=O)[C@H](CCCNC(=N)N)NC(=O)[C@H](Cc2ccc(O)cc2)NC(=O)[C@H](CCCCN)NC1=O | 1.66 | 10.7 | 17.4 |  |
| CCCC[C@@H]1NC(=O)[C@H](CO)NC(=O)[C@H](Cc2c[nH]cn2)NC(=O)[C@H](CCCNC(=N)N)NC(=O)[C@@H]2CSSC[C@@H]3NC(=O)[C@H]([C@@H](C)O)NC(=O)[C@H](CCCNC(=N)N)NC(=O)[C@H](CCCCN)NC(=O)[C@H](CSSC[C@H](NC(=O)[C@H](CCCNC(=N)N)NC(=O)[C@H](CO)NC(=O)[C@H](CCCCN)NC(=O)[C@@H]4CCCN4C(=O)[C@H]([C@@H](C)CC)NC(=O)[C@H]([C@@H](C)O)NC(=O)[C@H](CC(=O)O)NC(=O)[C@H](CCC(=O)O)NC(=O)[C@@H](NC(=O)[C@H](CO)NC(=O)[C@@H](N)CCCNC(=N)N)CSSC[C@@H](C(N)=O)NC(=O)[C@H]([C@@H](C)O)NC(=O)CNC3=O)C(=O)N[C@@H]([C@@H](C)O)C(=O)N[C@@H](C)C(=O)N[C@@H](Cc3ccccc3)C(=O)N[C@@H](CCCCN)C(=O)N2)NC(=O)[C@H](Cc2ccccc2)NC(=O)[C@H](CO)NC(=O)[C@H](CC(C)C)NC(=O)[C@H](CCCNC(=N)N)NC(=O)[C@H](Cc2ccc(O)cc2)NC(=O)[C@H](CCCCN)NC1=O | 0.269 | 1.96 | 1.33 |  |
| 30kDaPEG-ShK |  | 0.372 | 2.42 | 1.93 |
